Test results as given in ChEMBL document CHEMBL3868605, “Flavans with potential anti-inflammatory activities from Zephyranthes candida” (Bioorg Med Chem Lett, 2016).
pIC50: −log10 of the molar value.

Assays:
[1] = Antiinflammatory activity in mouse RAW264.7 cells assessed as inhibition of LPS-induced nitric oxide production after 24 hrs in presence of LPS by Griess assay; format: functional, cell-based; conditions: RAW264.7, 24 h
[2] = Cytotoxicity against mouse RAW264.7 cells assessed as cell survival rate at 200 uM after 24 hrs in presence of LPS by MTT assay; format: toxicity; conditions: read-out: Survival
[3] = Cytotoxicity against mouse RAW264.7 cells assessed as cell survival rate at 200 uM after 24 hrs in absence of LPS by MTT assay; format: toxicity; conditions: read-out: Survival

| Structure (SMILES) | pIC50 [1] | viability at 24 h, 200 µM [2] [%] | viability at 24 h, 200 µM [3] [%] |
| --- | --- | --- | --- |
| COc1ccc2c(c1)O[C@H](c1ccccc1)[C@H](O)C2 | 4.76 | 104 | 119 |
| COc1ccc([C@@H]2CCc3ccc(O)cc3O2)cc1O[C@@H]1O[C@H](CO)[C@@H](O)[C@H](O)[C@H]1O | 4.79 | 114 | 123 |
| COc1ccc([C@@H]2CCc3ccc(O[C@@H]4O[C@H](CO)[C@@H](O)[C@H](O)[C@H]4O)cc3O2)cc1O | 4.67 | 116 | 104 |
| C[C@@H]1C[C@H]2[C@@H]3CCC4=CC(=O)C=C[C@]4(C)[C@@]3(F)[C@@H](O)C[C@]2(C)[C@@]1(O)C(=O)CO [DEXAMETHASONE] | 6.20 | 100 | 91 |
